Experimental data: US9738634B2, “Heterocyclic amide compound and herbicide” (SYNGENTA PARTICIPATIONS AG, priority 2013, dated 2017)

What was measured:
Format in all cases: in vivo
Details in all cases: treatment dosage 320 g/ha
[1] = system: redroot pigweed; test: Test Example 3: weedkilling efficacy through soil treatment; L: redroot pigweed
In short: (§1)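 Crop and weed responses were judged three weeks after a uniform surface spray of the water-diluted emulsion at the given g/ha rate. Seeds sat beneath about 1.5 cm of sterilized diluvial soil, and boxes stood in a greenhouse at 25 to 30° C.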

[2] = system: chickweed; test: Test Example 4: weedkilling efficacy by foliar treatment; N: chickweed
In short: (§2)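 Seeds are spot-sown into sterilized diluvial soil and covered with about 1.5 cm of soil. After 14 days' greenhouse growth at 25 to 30° C, plants are sprayed on stems and leaves with diluted emulsion at the stated g/ha rate, then scored at 3 weeks.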

[3] = system: bulrush; test: Test Example 1: weedkilling efficacy, preemergent weed treatment in the submerged state; B: bulrush
In short: (§3)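 Pots of alluvial soil flooded 4 cm deep, sown with barnyard grass, bulrush and oval-leafed pondweed and transplanted with 2.5-leaf rice. Emulsified compound applied to the water surface on sowing day at stated g/ha; greenhouse 25–30 °C, effects assessed 3 weeks after treatment.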

[4] = system: corn; test: Test Example 4: foliar treatment, effect on crop; c: corn
In short: as §2

[5] = system: transplanted rice; test: Test Example 1: preemergent weed treatment in the submerged state, effect on crop; a: transplanted rice
In short: as §3

[6] = system: soybean; test: Test Example 4: foliar treatment, effect on crop; d: soybean
In short: as §2

[7] = system: Indian mallow; test: Test Example 3: weedkilling efficacy through soil treatment; K: Indian mallow
In short: as §1

[8] = system: common wind-grass; test: Test Example 3: weedkilling efficacy through soil treatment; J: common wind-grass
In short: as §1

[9] = system: Italian ryegrass; test: Test Example 4: weedkilling efficacy by foliar treatment; I: Italian ryegrass
In short: as §2

[10] = system: Indian mallow; test: Test Example 4: weedkilling efficacy by foliar treatment; K: Indian mallow
In short: as §2

[11] = system: corn; test: Test Example 3: soil treatment, effect on crop; c: corn
In short: as §1

[12] = system: catchweed; test: Test Example 4: weedkilling efficacy by foliar treatment; O: catchweed
In short: as §2

[13] = system: fig-leafed goosefoot; test: Test Example 4: weedkilling efficacy by foliar treatment; M: fig-leafed goosefoot
In short: as §2

[14] = system: wild oat; test: Test Example 4: weedkilling efficacy by foliar treatment; G: wild oat
In short: as §2

[15] = system: beet; test: Test Example 4: foliar treatment, effect on crop; f: beet
In short: as §2

[16] = system: rapeseed; test: Test Example 3: soil treatment, effect on crop; g: rapeseed
In short: as §1

[17] = system: directly sown rice; test: Test Example 4: foliar treatment, effect on crop; b: directly sown rice
In short: as §2

[18] = system: black-grass; test: Test Example 3: weedkilling efficacy through soil treatment; H: black-grass
In short: as §1

[19] = system: fig-leafed goosefoot; test: Test Example 3: weedkilling efficacy through soil treatment; M: fig-leafed goosefoot
In short: as §1

[20] = system: catchweed; test: Test Example 3: weedkilling efficacy through soil treatment; O: catchweed
In short: as §1

[21] = system: Italian ryegrass; test: Test Example 3: weedkilling efficacy through soil treatment; I: Italian ryegrass
In short: as §1

[22] = system: beet; test: Test Example 3: soil treatment, effect on crop; f: beet
In short: as §1

[23] = system: wild oat; test: Test Example 3: weedkilling efficacy through soil treatment; G: wild oat
In short: as §1

[24] = system: green foxtail; test: Test Example 4: weedkilling efficacy by foliar treatment; E: green foxtail
In short: as §2

[25] = system: bulrush; test: Test Example 2: weedkilling efficacy, growth period weed treatment in the submerged state; B: bulrush
In short: (§4)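 Barnyard grass, bulrush and oval-leafed pondweed sown in alluvial soil under 4 cm flooding, greenhouse 25 to 30° C. At 1-2 leaf stage, water-diluted emulsion applied to the water surface at stated g/ha dosages; effects scored 3 weeks later.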

[26] = system: black-grass; test: Test Example 4: weedkilling efficacy by foliar treatment; H: black-grass
In short: as §2

[27] = system: common wind-grass; test: Test Example 4: weedkilling efficacy by foliar treatment; J: common wind-grass
In short: as §2

[28] = system: oval-leafed pondweed; test: Test Example 1: weedkilling efficacy, preemergent weed treatment in the submerged state; C: oval-leafed pondweed
In short: as §3

[29] = system: green foxtail; test: Test Example 3: weedkilling efficacy through soil treatment; E: green foxtail
In short: as §1

[30] = system: soybean; test: Test Example 3: soil treatment, effect on crop; d: soybean
In short: as §1

[31] = system: wheat; test: Test Example 4: foliar treatment, effect on crop; e: wheat
In short: as §2

[32] = system: directly sown rice; test: Test Example 3: soil treatment, effect on crop; b: directly sown rice
In short: as §1

[33] = system: redroot pigweed; test: Test Example 4: weedkilling efficacy by foliar treatment; L: redroot pigweed
In short: as §2

[34] = system: barnyard grass; test: Test Example 2: weedkilling efficacy, growth period weed treatment in the submerged state; A: barnyard grass
In short: as §4

[35] = system: barnyard grass; test: Test Example 1: weedkilling efficacy, preemergent weed treatment in the submerged state; A: barnyard grass
In short: as §3

[36] = system: crabgrass; test: Test Example 4: weedkilling efficacy by foliar treatment; D: crabgrass
In short: as §2

[37] = system: oval-leafed pondweed; test: Test Example 2: weedkilling efficacy, growth period weed treatment in the submerged state; C: oval-leafed pondweed
In short: as §4

[38] = system: crabgrass; test: Test Example 3: weedkilling efficacy through soil treatment; D: crabgrass
In short: as §1

[39] = system: barnyard grass; test: Test Example 3: weedkilling efficacy through soil treatment; F: barnyard grass
In short: as §1

[40] = system: barnyard grass; test: Test Example 4: weedkilling efficacy by foliar treatment; F: barnyard grass
In short: as §2

[41] = system: chickweed; test: Test Example 3: weedkilling efficacy through soil treatment; N: chickweed
In short: as §1

[42] = system: wheat; test: Test Example 3: soil treatment, effect on crop; e: wheat
In short: as §1

[43] = system: birds-eye speedwell; test: Test Example 3: weedkilling efficacy through soil treatment; p: birds-eye speedwell
In short: as §1

[44] = system: rapeseed; test: Test Example 4: foliar treatment, effect on crop; g: rapeseed
In short: as §2

## CC1=C(c2ccccc2)C(=O)N(C(C)(C)C(=O)Nc2cc(C)cc(Cl)n2)CO1 [B-2-43]
[1]
  L (redroot pigweed) weedkilling efficacy grade: 3 (weed kill ratio 40% or more, less than 70%)
[2]
  N (chickweed) weedkilling efficacy grade: 3 (weed kill ratio 40% or more, less than 70%)
[3]
  B (bulrush) weedkilling efficacy grade: 5 (weed kill ratio 90% or more, (practically complete withering))
[4]
  c (corn) effect on crop grade: 3 (weed kill ratio 40% or more, less than 70%)
[5]
  a (transplanted rice) effect on crop grade: 3 (weed kill ratio 40% or more, less than 70%)
[6]
  d (soybean) effect on crop grade: 4 (weed kill ratio 70% or more, less than 90%)
[7]
  K (Indian mallow) weedkilling efficacy grade: 0 (weed kill ratio 5% or less (practically no effect))
[8]
  J (common wind-grass) weedkilling efficacy grade: 5 (weed kill ratio 90% or more, (practically complete withering))
[9]
  I (Italian ryegrass) weedkilling efficacy grade: 5 (weed kill ratio 90% or more, (practically complete withering))
[10]
  K (Indian mallow) weedkilling efficacy grade: 3 (weed kill ratio 40% or more, less than 70%)
[11]
  c (corn) effect on crop grade: 0 (weed kill ratio 5% or less (practically no effect))
[12]
  O (catchweed) weedkilling efficacy grade: 1 (weed kill ratio 5% or more, less than 20%)
[13]
  M (fig-leafed goosefoot) weedkilling efficacy grade: 4 (weed kill ratio 70% or more, less than 90%)
[14]
  G (wild oat) weedkilling efficacy grade: 3 (weed kill ratio 40% or more, less than 70%)
[15]
  f (beet) effect on crop grade: 3 (weed kill ratio 40% or more, less than 70%)
[16]
  g (rapeseed) effect on crop grade: 4 (weed kill ratio 70% or more, less than 90%)
[17]
  b (directly sown rice) effect on crop grade: 5 (weed kill ratio 90% or more, (practically complete withering))
[18]
  H (black-grass) weedkilling efficacy grade: 5 (weed kill ratio 90% or more, (practically complete withering))
[19]
  M (fig-leafed goosefoot) weedkilling efficacy grade: 3 (weed kill ratio 40% or more, less than 70%)
[20]
  O (catchweed) weedkilling efficacy grade: 4 (weed kill ratio 70% or more, less than 90%)
[21]
  I (Italian ryegrass) weedkilling efficacy grade: 5 (weed kill ratio 90% or more, (practically complete withering))
[22]
  f (beet) effect on crop grade: 4 (weed kill ratio 70% or more, less than 90%)
[23]
  G (wild oat) weedkilling efficacy grade: 5 (weed kill ratio 90% or more, (practically complete withering))
[24]
  E (green foxtail) weedkilling efficacy grade: 5 (weed kill ratio 90% or more, (practically complete withering))
[25]
  B (bulrush) weedkilling efficacy grade: 5 (weed kill ratio 90% or more, (practically complete withering))
[26]
  H (black-grass) weedkilling efficacy grade: 5 (weed kill ratio 90% or more, (practically complete withering))
[27]
  J (common wind-grass) weedkilling efficacy grade: 5 (weed kill ratio 90% or more, (practically complete withering))
[28]
  C (oval-leafed pondweed) weedkilling efficacy grade: 5 (weed kill ratio 90% or more, (practically complete withering))
[29]
  E (green foxtail) weedkilling efficacy grade: 4 (weed kill ratio 70% or more, less than 90%)
[30]
  d (soybean) effect on crop grade: 2 (weed kill ratio 20% or more, less than 40%)
[31]
  e (wheat) effect on crop grade: 0 (weed kill ratio 5% or less (practically no effect))
[32]
  b (directly sown rice) effect on crop grade: 3 (weed kill ratio 40% or more, less than 70%)
[33]
  L (redroot pigweed) weedkilling efficacy grade: 3 (weed kill ratio 40% or more, less than 70%)
[34]
  A (barnyard grass) weedkilling efficacy grade: 5 (weed kill ratio 90% or more, (practically complete withering))
[35]
  A (barnyard grass) weedkilling efficacy grade: 5 (weed kill ratio 90% or more, (practically complete withering))
[36]
  D (crabgrass) weedkilling efficacy grade: 5 (weed kill ratio 90% or more, (practically complete withering))
[37]
  C (oval-leafed pondweed) weedkilling efficacy grade: 5 (weed kill ratio 90% or more, (practically complete withering))
[38]
  D (crabgrass) weedkilling efficacy grade: 5 (weed kill ratio 90% or more, (practically complete withering))
[39]
  F (barnyard grass) weedkilling efficacy grade: 5 (weed kill ratio 90% or more, (practically complete withering))
[40]
  F (barnyard grass) weedkilling efficacy grade: 5 (weed kill ratio 90% or more, (practically complete withering))
[41]
  N (chickweed) weedkilling efficacy grade: 4 (weed kill ratio 70% or more, less than 90%)
[42]
  e (wheat) effect on crop grade: 1 (weed kill ratio 5% or more, less than 20%)
[43]
  P (birds-eye speedwell) weedkilling efficacy grade: 5 (weed kill ratio 90% or more, (practically complete withering))
[44]
  g (rapeseed) effect on crop grade: 4 (weed kill ratio 70% or more, less than 90%)
